The test system of one assay is AMP KINASE. Put plainly: AMP KINASE activation, cell based ELISA in Hepatoma (Hep 2) liver cells. The conditions noted are these: 0.1 nM, 30 m, over baseline of 100 (DMSO control). The procedure:
AMP KINASE activation potential of the compounds was evaluated using cell based ELISA·Hepatoma (Hep 2) liver cells were maintained in a T 75 culture flask-containing 25 mM DMEM+10% fetal calf serum. The cells were maintained in a T 75 culture flask-containing medium (DMEM+10% fetal calf serum). On reaching a confluence of 70 to 80%, the cells were seeded in a 96 well plate at a density of 40,000 cells per well in 25 mM DMEM+10% FCS medium. The plates were then incubated at 37° C. with 5% CO2 for 24 hours. Various concentrations of drugs were prepared in DMSO and diluted to required concentration with the medium and incubated at 37° C. with 5% CO2 for 30 min and 1 h for Epicatechin analogs and 11-BHP analogs respectively. Metformin was used as positive control·Cells were fixed with 4% formaldehyde for 30 minutes at room temperature and washed three times with PBS containing 0.1% Triton X-100. Endogenous peroxidase was quenched with 1% H2O2 in PBS-T (0.1% Tween 20) for 30 minutes and washed three times in PBS-T. Cells were blocked with 1% BSA in PBS-T for 1 hour. The cells were incubated with 1:1000 dilution primary antibody (Phospho-AMPKα ([…]) Rabbit mAb, Cell Signaling in PBS-T containing 5% BSA at 4° C. overnight. The cells were then washed three times with PBS-T for 5 minutes and incubated with 1:1000 dilution secondary antibody (Anti-rabbit IgG, HRP-linked Antibody, Cell Signaling) in PBS-T with 1% BSA for 1 hour at RT·Cells were washed three times with PBS-T for 5 minutes The cells were incubated with 100 μl TMB substrate solution for 30 minutes and the reaction was stopped with 100 μl of 2N H2SO4. Then the plate was read at 450 nm using ELISA plate reader and absorbance recorded. % activity was calculated using DMSO control as 100%.
For orientation: An ELISA detects its analyte on a solid surface through an enzyme-linked reagent.

Assay [1] relates to mitochondrial oxidative phosphorylation complex I. Put plainly: Western blot of mitochondrial oxidative phosphorylation complex I protein levels in human coronary artery endothelial cells. The conditions noted are these: HCAEC, 48 h, FIG. 1a. The class given is cell-based. The procedure: Cells were grown in Dulbecco's modified Eagle's media supplemented with fetal bovine serum (10%) to ˜90% confluence. Cells were treated with either vehicle (water) or incremental doses of the agent (dissolved in water) for a total of 48 h (treatment was repeated at the 24 h time point). At the end of the experiment, cells were lysed in Western blot sample buffer. A fixed amount of protein (25 micrograms) was loaded onto a polyacrylamide gel and run for 1 h to allow for the electrophoretic separation of proteins. The gel was then transferred onto a polyvinyl membrane for incubation with blocking buffer prior to exposure to the 1ry antibody (anti-human complex […]. Following a 1 h incubation at room temperature the membrane was washed and then exposed to the 2ry antibody for 1 h. after a second set of washes the membrane was incubated with an enhanced-chemiluminescence kit solution followed by exposure to X-ray film. The image obtain was used to quantitative changes in complex I protein levels as a function of compound dose. To normalize for loading differences the membrane was re-incubated (as above) with the subunit 6 ribosomal protein (S6RP) and exposed to X-ray film. Changes in values for complex I levels are normalized to differences in S6RP levels. All data are normalized to the values noted for cells treated with vehicle only (=100%). The results are presented at FIG. 1 a.

A further assay deals with AMPKinase. Description: AMPKinase activation in HepG2 cells (Western blot of phosphorylated AMPK and ACC). It is filed as cell-based. The conditions noted are these: HepG2, 1 hour, FIG. 2a. From the text: OHP effects on AMPKinase activation in HepG2 cells. […] (RNeasy kit, QIAGEN). OHP effects on APPL1 nuclear translocation. […] The results are presented at FIGS. 2a and 2b.
On the technique in general: A western blot detects proteins with antibodies after separation by electrophoresis.

For assay [2], the system named is HepG2 cells. Put plainly: Mitochondrial DNA content in HepG2 cells. It is filed as cell-based. The conditions noted are these: HepG2, 24 hours, FIG. 3b. From the text:
The results are depicted at FIGS. 3a and 3b.

The test system of assay [3] is HepG2 cells. Description: Intracellular glucose production (de novo gluconeogenesis) in HepG2 cells. The class given is cell-based. The conditions noted are these: HepG2, FIG. 5. The procedure: (§1) HepG2 cells were exposed to serum-free media for 3 hours and then exposed to gluconeogenic factors (lactate and pyruvate 10:1 ratio) and stimulators (cAMP) in the presence of increasing concentrations of OHP (in nM). Intracellular glucose production—a marker of de novo gluconeogenesis—was determined enzymatically (biovision glucose determination kit), as well as intracellular beta-hydroxybutyrate levels (a marker of fat oxidation) and triglycerides (substrate for fat oxidation). […] The results are depicted at FIG. 5.

The subject of assay [4] is HepG2 cells. Description: Fat oxidation (intracellular beta-hydroxybutyrate, triglycerides) in HepG2 cells. It is filed as cell-based. The following applies: HepG2, FIG. 5. The procedure: as §1
Setting [5] is: listed as 11β-hydroxypregnenolone.

From patent US11542298B2, “Hydroxysteroid compounds, their intermediates, process of preparation, composition and uses thereof” (Epirium Bio Inc., priority 2014, dated 2023) come the findings set out here.

With `CC(=O)C1CC[C@H]2[C@@H]3CC=C4CC(O)CC[C@]4(C)[C@H]3[C@@H](O)C[C@]12C` (stereo partly drawn) [Compound 1039, 1-((8S,9S,10R,11S,13S,14S)-3,11-dihydroxy-10,13-dimethyl-2,3,4,- 7,8,9,10,11,12,13,14,15,16,17-tetradecahydro-1H-cyclopenta[a]-phenanthren-17-yl)ethanone], the “% pAMPK” value with AMP KINASE is given as 109%. In addition, the “mitochondrial biogenesis (complex I protein levels)” value is recorded as “causes mitochondrial biogenesis” in assay [1] and “mitochondrial biogenesis” in assay [1] (setting [5]). Also, the “activation of AMP kinase” value in the assay on AMPKinase is listed as “activates AMPkinase”; in the assay on AMPKinase (setting [5]) it was “activation of AMP KINASE”. The “mitochondrial DNA content” value in the assay on HepG2 cells [2] is “increases the DNA content of mitochondria”; in the assay with HepG2 cells [2] (setting [5]), “increase of mitochondrial DNA content”. The “hepatic gluconeogenesis (intracellular glucose production)” value in the assay on HepG2 cells [3] is “reduces hepatic gluconeogenesis”; with HepG2 cells [3] (setting [5]), “reduction of hepatic gluconeogenesis”. The fat oxidation result in the assay with HepG2 cells [4] was “stimulates oxidation of fat”; in the assay on HepG2 cells [4] (setting [5]), “stimulation of fat oxidation”.
